Assay results reported in patent US10717716B2, “1,3,4-oxadiazole derivative compounds as histone deacetylase 6 inhibitor, and the pharmaceutical composition comprising the same” (Chong Kun Dang Pharmaceutical Corp., priority 2015, dated 2020).

Columns and labels:
[1] = biological target: T1, human recombinant HDAC1 (Homo sapiens, UniProt Q13547); experiment: HDAC1 enzyme activity inhibition assay (HDAC Fluorimetric Drug Discovery Kit); type: biochemical; details: human recombinant HDAC1, Fluor de Lys substrate 10 μM, 30° C. 60 minutes
T1 construct: purchased Enzo Life Science BML-SE456
Experimental: In order to examine the HDAC6 selectivity of the compounds of formula I of the present invention by HDAC1 and HDAC6 enzymatic activity inhibition assays, an experiment was performed using a conventional substance as a control.
HDAC enzyme activity was measured using a HDAC Fluorimetric Drug Discovery Kit (BML-AK511, 516, Enzo Life Science). For the HDAC1 enzyme activity test, human recombinant HDAC1 (BML-SE456) was used as an enzyme source, and Fluor de Lys®-“SIRT1 (BNL-KI177) was used as a substrate. A 5-fold dilution of the compound was seeded into a 96-well plate, and then 0.3 μg of the enzyme and 10 μM of the substrate were added to each well of the plate and allowed to react at 30° C. for 60 minutes. Then, Fluor de Lys®-Developer II (BML-KI176) was added thereto and allowed to react for 30 minutes, after which the fluorescence value (Ex 360, Em 460) was measured using a multi-plate reader (Flexstation 3, Molecular Device). The HDAC6 enzyme was tested using human recombinant HDAC6 (382180) (Calbiochem) according to the same protocol as the HDAC1 enzyme activity test method. Based on the resulting values, each IC5, value was calculated using GraphPad Prism4.0 program.

[2] = biological target: T2, human recombinant HDAC6 (Homo sapiens, UniProt Q9UBN7); experiment: HDAC6 enzyme activity inhibition assay (HDAC Fluorimetric Drug Discovery Kit); type: biochemical; details: for HDAC6 selectivity (fold): HDAC6 over HDAC1; for IC50: human recombinant HDAC6, same protocol as HDAC1, read-out: HDAC6
T2 construct: purchased Calbiochem 382180
T2 sequence (Q9UBN7 1-1215): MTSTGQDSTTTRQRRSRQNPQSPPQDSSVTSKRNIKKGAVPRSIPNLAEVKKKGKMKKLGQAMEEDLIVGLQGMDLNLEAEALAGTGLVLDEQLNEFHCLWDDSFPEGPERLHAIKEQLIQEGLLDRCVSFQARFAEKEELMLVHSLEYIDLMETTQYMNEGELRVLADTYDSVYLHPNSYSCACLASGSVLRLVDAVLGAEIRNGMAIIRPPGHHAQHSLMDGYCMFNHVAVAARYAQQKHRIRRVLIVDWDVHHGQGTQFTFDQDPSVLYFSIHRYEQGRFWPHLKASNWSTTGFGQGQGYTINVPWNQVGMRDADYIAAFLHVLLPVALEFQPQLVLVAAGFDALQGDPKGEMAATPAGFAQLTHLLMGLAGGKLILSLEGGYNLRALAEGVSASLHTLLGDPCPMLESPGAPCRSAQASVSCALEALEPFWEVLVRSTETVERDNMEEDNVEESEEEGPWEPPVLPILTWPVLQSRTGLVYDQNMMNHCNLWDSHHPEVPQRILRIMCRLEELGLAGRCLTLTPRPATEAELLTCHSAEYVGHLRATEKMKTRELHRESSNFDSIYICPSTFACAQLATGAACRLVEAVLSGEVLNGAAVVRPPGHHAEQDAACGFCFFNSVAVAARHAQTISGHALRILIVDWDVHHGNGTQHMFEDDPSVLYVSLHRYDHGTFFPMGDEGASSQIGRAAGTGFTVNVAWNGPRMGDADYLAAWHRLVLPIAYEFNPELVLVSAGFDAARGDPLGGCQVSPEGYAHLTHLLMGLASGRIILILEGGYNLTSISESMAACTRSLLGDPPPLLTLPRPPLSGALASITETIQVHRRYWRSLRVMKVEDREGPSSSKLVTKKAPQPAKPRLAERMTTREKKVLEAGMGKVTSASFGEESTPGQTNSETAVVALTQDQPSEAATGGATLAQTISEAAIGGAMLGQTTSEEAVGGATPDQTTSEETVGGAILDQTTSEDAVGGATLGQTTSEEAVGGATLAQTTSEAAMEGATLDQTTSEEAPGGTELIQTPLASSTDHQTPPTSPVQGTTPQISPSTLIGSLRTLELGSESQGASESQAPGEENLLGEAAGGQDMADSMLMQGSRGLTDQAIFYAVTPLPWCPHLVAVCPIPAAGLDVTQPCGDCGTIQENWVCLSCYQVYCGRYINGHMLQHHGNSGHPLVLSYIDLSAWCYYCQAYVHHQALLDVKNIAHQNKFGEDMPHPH
Method in brief: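 Fluorimetric deacetylase assay: 5-fold serial compound dilutions, 0.3 μg recombinant human enzyme (HDAC1 or HDAC6, same protocol), 10 μM Fluor de Lys-SIRT1 substrate, 60 min at 30 °C. Signal developed 30 min, measured at 360/460 nm; IC50 values derived.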

T1 sequence (Q13547 whole entry): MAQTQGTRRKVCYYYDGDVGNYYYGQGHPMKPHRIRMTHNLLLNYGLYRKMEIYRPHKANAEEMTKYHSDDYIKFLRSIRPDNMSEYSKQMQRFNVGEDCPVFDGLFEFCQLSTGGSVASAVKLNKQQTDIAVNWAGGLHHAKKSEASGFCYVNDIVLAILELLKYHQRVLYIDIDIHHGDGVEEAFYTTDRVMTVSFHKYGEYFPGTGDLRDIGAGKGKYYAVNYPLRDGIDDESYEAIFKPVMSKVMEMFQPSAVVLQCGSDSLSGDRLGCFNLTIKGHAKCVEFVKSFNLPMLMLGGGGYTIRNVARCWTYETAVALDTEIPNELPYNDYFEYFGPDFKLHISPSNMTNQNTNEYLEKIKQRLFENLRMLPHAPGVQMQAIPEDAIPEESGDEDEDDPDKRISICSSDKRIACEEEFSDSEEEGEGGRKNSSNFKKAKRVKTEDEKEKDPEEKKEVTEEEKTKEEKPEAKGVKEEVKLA

IC50 [1] [µM]	HDAC6 selectivity (fold) [2] [fold]	IC50 [2] [µM]	SMILES
18.8	1518	0.012	CN1CCN(C(=O)N(Cc2ccc(-c3nnc(C(F)F)o3)cc2F)c2ccc3cnn(C)c3c2)CC1 [Compound 21654, N-(4-(5-(difluoromethyl)-1,3,4-oxadiazol-2-yl)-2-fluorobenzyl)-4-methyl-N-(1-methyl-1H-indazol-6-yl)piperazine-1-carboxamide]
36.5	1122	0.033	CCN1CCN(C(=O)N(Cc2ccc(-c3nnc(C(F)F)o3)cc2F)c2ccc(F)c(Br)c2)CC1 [Compound 21656, N-(3-bromo-4-fluorophenyl)-N-(4-(5-(difluoromethyl)-1,3,4-oxadiazol-2-yl)-2-fluorobenzyl)-4-ethylpiperazine-1-carboxamide]
8.44	59	0.144	CCN1CCN(C(=O)N(Cc2ccc(-c3nnc(C(F)(F)F)o3)cc2F)c2ccc(F)c(Br)c2)CC1 [Compound 21658, N-(3-bromo-4-fluorophenyl)-4-ethyl-N-(2-fluoro-4-(5-(trifluoromethyl)-1,3,4-oxadiazol-2-yl)benzyl)piperazine-1-carboxamide]
15.7	153	0.102	CCN1CCN(C(=O)N(Cc2ccc(-c3nnc(C(F)(F)F)o3)cc2F)c2cccc(F)c2F)CC1 [Compound 21659, N-(2,3-difluorophenyl)-4-ethyl-N-(2-fluoro-4-(5-(trifluoromethyl)-1,3,4-oxadiazol-2-yl)benzyl)piperazine-1-carboxamide]
24.8	80	0.309	CCN1CCN(C(=O)N(Cc2ccc(-c3nnc(C(F)(F)F)o3)cc2F)c2ccc(C)c(Cl)c2)CC1 [Compound 21660, N-(3-chloro-4-methylphenyl)-4-ethyl-N-(2-fluoro-4-(5-(trifluoromethyl)-1,3,4-oxadiazol-2-yl)benzyl)piperazine-1-carboxamide]
17.1	114	0.151	O=C(N1CC[C@@H](O)C1)N(Cc1ccc(-c2nnc(C(F)(F)F)o2)cc1F)c1ccc(F)c(Cl)c1 [Compound 21664, (R)—N-(3-chloro-4-fluorophenyl)-N-(2-fluoro-4-(5-(trifluoromethyl)-1,3,4-oxadiazol-2-yl)benzyl)-3-hydroxypyrrolidine-1-carboxamide]
19.1	917	0.021	O=C(N1CC[C@H](F)C1)N(Cc1ccc(-c2nnc(C(F)F)o2)cc1F)c1ccc(F)c(Cl)c1 [Compound 21665, (S)—N-(3-chloro-4-fluorophenyl)-N-(4-(5-(difluoromethyl)-1,3,4-oxadiazol-2-yl)-2-fluorobenzyl)-3-fluoropyrrolidine-1-carboxamide]
20.5	55	0.374	O=C(N1CC[C@H](F)C1)N(Cc1ccc(-c2nnc(C(F)(F)F)o2)cc1F)c1ccc(F)c(Cl)c1 [Compound 21666, (S)—N-(3-chloro-4-fluorophenyl)-3-fluoro-N-(2-fluoro-4-(5-(trifluoromethyl)-1,3,4-oxadiazol-2-yl)benzyl)pyrrolidine-1-carboxamide]
20.1	485	0.041	O=C(N1CCC(F)(F)C1)N(Cc1ccc(-c2nnc(C(F)F)o2)cc1F)c1ccc(F)c(Cl)c1 [Compound 21667, N-(3-chloro-4-fluorophenyl)-N-(4-(5-(difluoromethyl)-1,3,4-oxadiazol-2-yl)-2-fluorobenzyl)-3,3-difluoropyrrolidine-1-carboxamide]
10.4	41	0.253	O=C(N1CCC(F)(F)C1)N(Cc1ccc(-c2nnc(C(F)(F)F)o2)cc1F)c1ccc(F)c(Cl)c1 [Compound 21668, N-(3-chloro-4-fluorophenyl)-3,3-difluoro-N-(2-fluoro-4-(5-(trifluoromethyl)-1,3,4-oxadiazol-2-yl)benzyl)pyrrolidine-1-carboxamide]
7.47	46	0.164	O=C(N1CCN(CCO)CC1)N(Cc1ccc(-c2nnc(C(F)(F)F)o2)cc1F)c1ccc(F)c(Cl)c1 [Compound 21669, N-(3-chloro-4-fluorophenyl)-N-(2-fluoro-4-(5-(trifluoromethyl)-1,3,4-oxadiazol-2-yl)benzyl)-4-(2-hydroxyethyl)piperazine-1-carboxamide]
23.2	675	0.034	O=C(N1CCN(CCO)CC1)N(Cc1ccc(-c2nnc(C(F)F)o2)cc1F)c1ccc(F)c(Cl)c1 [Compound 21679, N-(3-chloro-4-fluorophenyl)-N-(4-(5-(difluoromethyl)-1,3,4-oxadiazol-2-yl)-2-fluorobenzyl)-4-(2-hydroxyethyl)piperazine-1-carboxamide]
58.5	2255	0.026	CN1CCN(C(=O)N(Cc2ccc(-c3nnc(C(F)F)o3)cc2F)c2cccc3c2cnn3C)CC1 [Compound 21709, N-(4-(5-(difluoromethyl)-1,3,4-oxadiazol-2-yl)-2-fluorobenzyl)-4-methyl-N-(1-methyl-1H-indazol-4-yl)piperazine-1-carboxamide]
67.7	2651	0.026	Cn1ncc2c(N(Cc3ccc(-c4nnc(C(F)F)o4)cc3F)C(=O)N3CCS(=O)(=O)CC3)cccc21 [Compound 21710, N-(4-(5-(difluoromethyl)-1,3,4-oxadiazol-2-yl)-2-fluorobenzyl)-N-(1-methyl-1H-indazol-4-yl)thiomorpholine-4-carboxamide 1,1-dioxide]
20.7	736	0.028	Cn1ncc2ccc(N(Cc3ccc(-c4nnc(C(F)F)o4)cc3F)C(=O)N3CCOCC3)cc21 [Compound 21724, N-(4-(5-(Difluoromethyl)-1,3,4-oxadiazol-2-yl)-2-fluorobenzyl)-N-(1-methyl-1H-indazol-6-yl)morpholine-4-carboxamide]
19.1	662	0.029	CCN1CCN(C(=O)N(Cc2ccc(-c3nnc(C(F)F)o3)cc2F)c2ccc3cnn(C)c3c2)CC1 [Compound 21735, N-(4-(5-(difluoromethyl)-1,3,4-oxadiazol-2-yl)-2-fluorobenzyl)-4-ethyl-N-(1-methyl-1H-indazol-6-yl)piperazine-1-carboxamide]
17.7	432	0.041	CN(C)[C@@H]1CCN(C(=O)N(Cc2ccc(-c3nnc(C(F)F)o3)cc2F)c2ccc3cnn(C)c3c2)C1 [Compound 21736, (R)—N-(4-(5-(difluoromethyl)-1,3,4-oxadiazol-2-yl)-2-fluorobenzyl)-3-(dimethylamino)-N-(1-methyl-1H-indazol-6-yl)pyrrolidine-1-carboxamide]
